Results: patent US12460215B2, “Bacillus expression system” (WILLIAM MARSH RICE UNIVERSITY, priority 2018, dated 2025)

What was measured:
[1] = system: LacI lactose operon repressor (SEQ ID NO 11), LacI-T7 system (Phy-spank-T7 RNAP / PT7lac, sfgfp reporter); assay: IPTG dose response of the LacI-T7 inducible promoter system (steady state transfer function, sfGFP fluorescence by flow cytometry); type: cell-based, B. subtilis PY79; settings: Hill function fit
From the text: (§1) FIG. 1E sfGFP Fluorescence from LacI-T7 and Phy-spank as a function of IPTG concentration.
Next, we measured the steady state transfer function of both systems by growing the corresponding strains under different concentrations of IPTG. In both cases, sfGFP fluorescence increases as a function of IPTG concentration in a manner well-approximated by a Hill function (FIG. 1E).
For each experiment, an overnight LB culture was started from the freezer stock of each relevant strain. The next day, saturated cultures (OD600˜3) were diluted 10^5-fold in M9. […]
(§2) The sfGFP fluorescence distribution of each culture was measured using a BD FACScan flow cytometer with an excitation source of 488 nm and an emission window of 510/21 nm. […] A suspension of calibration beads (Spherotech® RCP-30-5A) in PBS was measured with each experiment. […]
(§3) Cell populations were gated by forward scatter/side scatter density (not shown) retaining 50% of the total number of events. Next, fluorescence of each gated event in arbitrary units was converted into standardized MEFL values using the calibration bead data. The total cellular fluorescence of each culture sample was then obtained by calculating the median MEFL fluorescence of all gated events in that sample. […] Numerical sfGFP fluorescence values of every sample and replicate can be found in Table 1.

[2] = system: LacI lactose operon repressor (SEQ ID NO 11), Phy-spank system (sfgfp reporter); assay: IPTG dose response of the Phy-spank inducible promoter system (steady state transfer function, sfGFP fluorescence by flow cytometry); type: cell-based, B. subtilis PY79; settings: Hill function fit
From the text: as §1
Phy-spank is a variant of the IPTG-inducible promoter Pspac optimized for higher expression and dynamic range, and is perhaps the most widely used B. subtilis inducible promoter system. We constructed a second B. subtilis strain wherein sfgfp* was expressed under the control of Phy-spank, RiboJ, and RBS MF001 to compare its performance to that of LacI-T7.
Next, we measured the steady state transfer function of both systems by growing the corresponding strains under different concentrations of IPTG. In both cases, sfGFP fluorescence increases as a function of IPTG concentration in a manner well-approximated by a Hill function (FIG. 1E). […]
as §2
as §3, with “data.” for “data. The total cellular fluorescence of each culture sample was then obtained by calculating the median MEFL fluorescence of all gated events in that sample.”

[3] = Bacillus subtilis, IPTG detection threshold, sfGFP fluorescence, read-out: 50% activation concentration
[4] = sfGFP fluorescence as a function of IPTG concentration

In the case of `CC(C)S[C@@H]1O[C@H](CO)[C@H](O)[C@H](O)[C@H]1O` [IPTG, Isopropyl β-D-1-thiogalactopyranoside], the EC50 [1, 3] is reported as 54.1 ± 1.6 µM, the Hill coefficient [1, 4] is reported as 3.377±0.051 and the EC50 [2, 3] is reported as 50.2 ± 1.5 µM. It also gave a Hill coefficient [2, 4] of 2.120±0.033.
